Measured values taken from PubChem BioAssay AID1549 (Sanford-Burnham Center for Chemical Genomics, 2009).
Active and inactive are the calls of the source. No rule for the calls is given here.

Target: Influenza A virus M2 proton channel (A/TW/4845/1999 H1N1)
Assay: M2 proton channel binding, NMR based, influenza A virus H1N1 strain (AID 1549)
Conditions: NMR binding screen, M2 protein

SMILES | Kd
COc1ccc(-c2c(O)c3c(OC)c4c(cc3oc2=O)OC(C)(C)CC4)cc1 | > 4 mM (inactive)
O=C(O)c1ccc(Nc2nncc(=O)[nH]2)cc1 | > 4 mM (inactive)
O=C(O)Cc1csc(-c2ccccc2)n1 | > 4 mM (inactive)
CSc1nnc(CN2CCSCC2)n1C | > 4 mM (inactive)
COc1cc(/C=C/C(=O)/C=C(O)/C=C/c2ccc(O)c(OC)c2)ccc1O | > 4 mM (inactive)
CC(C)=CC(=O)Nc1ccccc1Br | > 4 mM (inactive)
Nc1cc(N)nc(SCc2ccccc2)n1 | > 4 mM (inactive)
C=C(C)[C@H]1COc2cc3oc(=O)ccc3cc2O1 | > 4 mM (inactive)
Cc1c(C)[n+](=O)c(-c2cccs2)c(C)n1[O-] | > 4 mM (inactive)
Cc1ccc2[nH]c3nc(=S)[nH]nc3c2c1 | > 4 mM (inactive)
COC1CC(O[C@H]2CC[C@]3(C=O)C4CC[C@]5(C)C(C6=CC(=O)OC6)CC[C@]5(O)C4CC[C@]3(O)C2)OC(C)C1O (some centres not stated) | > 4 mM (inactive)
O=C(/C=C/c1ccc(O)c(O)c1)O[C@@H]1C[C@](O)(C(=O)O)C[C@@H](O)[C@H]1O | > 4 mM (inactive)
Cc1ccc(NC(=O)/C=C2\SC(=O)NC2=O)cc1 | > 4 mM (inactive)
Nc1nnc(SCc2ccccc2Cl)s1 | > 4 mM (inactive)
NC1CS(=O)(=O)CC1O (configuration not stated) | > 4 mM (inactive)
c1ccc(Cn2c(Nn3cnnc3)nc3ccccc32)cc1 | > 4 mM (inactive)
CC(=O)Nc1c(C#N)c(C(C)(C)C)cn1C | > 4 mM (inactive)
CSc1ccc(S(=O)(=O)N2CCCC2)cc1 | > 4 mM (inactive)
O=C(NCc1n[nH]c(=O)c2ccccc12)C1CC1 | > 4 mM (inactive)
CS(=O)(=O)c1ccccc1C(=O)Nc1nccs1 | > 4 mM (inactive)
COc1cc(-c2nnc(NC(C)=O)o2)cc(OC)c1OC | > 4 mM (inactive)

SMILES | Kd
CCOC(=O)N1CCCC1c1cccnc1 (configuration not stated) | > 4 mM (inactive)
NC(=O)C1CCN(C(=S)c2ccccc2)CC1 | > 4 mM (inactive)
Cc1nnc(NCCO)[nH]c1=O | > 4 mM (inactive)
O=c1[nH]cnc2nn(-c3ccccc3)nc12 | > 4 mM (inactive)
O=C1NC(=O)C(C(=S)Nc2ccccc2)C(=O)N1 | > 4 mM (inactive)
CCOC(=O)C1C(C=C(C)C)C1(C)C (configuration not stated) | > 4 mM (inactive)
CC(O)C(=O)N/N=C/c1ccccc1 (configuration not stated) | > 4 mM (inactive)
C[n+]1ccn(C/C(N)=N/O)c1 | > 4 mM (inactive)
OCc1nc2ccccc2s1 | > 4 mM (inactive)
O=C(Cc1cccs1)Nc1nncs1 | > 4 mM (inactive)
O=C(Nc1cccnc1)c1c(F)cccc1F | > 4 mM (inactive)
O=C(Nc1ccccc1)C(=O)NC1CC1 | > 4 mM (inactive)
Cc1cc2cc(N)ccc2[nH]1 | > 4 mM (inactive)
NCCc1c[nH]c2ccccc12 | > 4 mM (inactive)
CCc1ccccc1NC(=O)c1ccoc1C | > 4 mM (inactive)
Cc1cc(NC(=O)Cc2cccs2)no1 | > 4 mM (inactive)
CSc1nc(C)c(Oc2ccccc2)c(=O)n1C | > 4 mM (inactive)
Cc1cc(NC(=O)c2cccc(N3C(=O)CCC3=O)c2)no1 | > 4 mM (inactive)
NC(=O)Cc1nc(-c2ccccc2)cs1 | > 4 mM (inactive)
Cc1nnc(NCc2cccnc2)[nH]c1=O | > 4 mM (inactive)
S=C(c1ccc(N2CCOCC2)cc1)N1CCCCC1 | > 4 mM (inactive)

SMILES | Kd
O=c1c2ccccc2nc2n1CCC2O (configuration not stated) | > 4 mM (inactive)
OC[C@H]1O[C@@H](n2cnc3c(NCc4ccco4)ncnc32)[C@H](O)[C@@H]1O | > 4 mM (inactive)
CC(=O)OC1CC[C@@]2(C)C(CCC3C2CC[C@]2(C)C(C4=CC(=O)OC4)C(OC(C)=O)CC32O)C1 (some centres not stated) | > 4 mM (inactive)
CN1CCC(N(C)C2CCN(C)CC2)CC1 | > 4 mM (inactive)
Cc1cc(C)n(S(=O)(=O)c2ccc(C)c(C)c2C)n1 | > 4 mM (inactive)
CC(C)NC(=S)N1CCN(S(C)(=O)=O)CC1 | > 4 mM (inactive)
O=C1NC(=S)NC(=O)C1=Cc1cccs1 | > 4 mM (inactive)
Cc1ccc(-n2[nH]c(C)cc2=O)cc1 | > 4 mM (inactive)
CC(C)(C)C(=O)Nc1ncc(C(F)(F)F)cc1Cl | > 4 mM (inactive)
COc1ccccc1NC(=O)CCC(=O)O | > 4 mM (inactive)
O=c1c(-c2ccco2)[n+]([O-])c2ccccc2n1O | > 4 mM (inactive)
N#Cc1cc2ccccc2nc1N | > 4 mM (inactive)
O=S1(=O)CCC(Nc2ccccc2)C1 (configuration not stated) | > 4 mM (inactive)
CCN(CC)C(=O)c1n[nH]c(=O)c2ccccc12 | > 4 mM (inactive)
OCc1cccc2c1OCCO2 | > 4 mM (inactive)
Cc1cc(N)ccc1NC(=O)c1ccco1 | > 4 mM (inactive)
COc1cc(C)c(Cl)cc1S(=O)(=O)N(C)C | > 4 mM (inactive)
Nc1ccc(-c2cn3c(n2)SCC3)cc1 | > 4 mM (inactive)
O=c1[nH]nc(Cc2ccncc2)c2ccccc12 | > 4 mM (inactive)
COc1ccc(-c2oc3ccccc3c(=O)c2O)cc1OC | > 4 mM (inactive)
